The text below walks through data of ChEMBL document CHEMBL5247622, “Structural optimization of Imidazo[1, 2-a]pyridine derivatives for the treatment of gastric cancer via STAT3 signaling pathway” (Eur J Med Chem, 2022).

In data set [1] the test system is AGS. Briefly: Antiproliferative activity against human AGS cells assessed as reduction in cell viability incubated for 72 hrs by CCK-8 assay. The class given is functional, cell-based. (In general: Formazan colour is commonly taken as a measure of viable cells.)
Data set [2] deals with MGC-803. As to the kind of experiment: Antiproliferative activity against human MGC-803 cells assessed as reduction in cell viability incubated for 72 hrs by CCK-8 assay. The settings on record: MGC-803, 72 h. The format is functional, cell-based.
A short description of data set [3]: Metabolic stability in human liver microsomes assessed as half life. The format is ADME, Microsome. A general note: Liver microsomes are a subcellular fraction often used to study metabolism.
Data set [4] addresses Signal transducer and activator of transcription 3 (Homo sapiens) (UniProt P40763). Briefly: Inhibition of STAT3 (unknown origin) transcriptional signaling transfected in HEK293T cells at 3 uM incubated for 24 hrs by firefly luciferase gene reporter assay. The class given is cell-based. Background: Reporter assays use an easily measured gene product as a stand-in for the process of interest.

Data set [5] shares this target. As to the kind of experiment: Thermal stabilization of STAT3 in human AGS cells at 1 uM at 37 to 54 degreeC incubated for 1 hr by cellular thermal shift assay. The class given is cell-based.
Data set [6] deals with AGS. As to the kind of experiment: Inhibition of colony formation in human AGS cells at 0.3 to 3 uM incubated for 10 to 15 days by crystal violet staining based assay. The format is functional, cell-based. To be noted: dose 0.3-3 µM, time 10-15 day.
The test system of data set [7] is MGC-803. As to the kind of experiment: Inhibition of colony formation in human MGC-803 cells at 0.3 to 3 uM incubated for 10 to 15 days by crystal violet staining based assay. The class given is functional, cell-based. To be noted: dose 0.3-3 µM, time 10-15 day.
Data set [8] relates to AGS. Briefly: Induction of apoptosis in human AGS cells assessed as viable cells at 0.3 uM incubated for 48 hrs by Annexin V-FITC/PI staining based flow cytometry method (reference value: 94.8 %). The class given is functional. To be noted: read-out: Activity.
Data set [9] concerns AGS. As to the kind of experiment: Induction of apoptosis in human AGS cells assessed as viable cells at 1 uM incubated for 48 hrs by Annexin V-FITC/PI staining based flow cytometry method (reference value: 94.8 %). The class given is functional. To be noted: read-out: Activity.
The test system of data set [10] is AGS. As to the kind of experiment: Induction of apoptosis in human AGS cells assessed as viable cells at 3 uM incubated for 48 hrs by Annexin V-FITC/PI staining based flow cytometry method (reference value: 94.8 %). To be noted: read-out: Activity. The format is functional.
The test system of data set [11] is AGS. Briefly: Induction of apoptosis in human AGS cells assessed as early apoptotic cells at 0.3 uM incubated for 48 hrs by Annexin V-FITC/PI staining based flow cytometry method (reference value: 2.38 %). The class given is functional.
The subject of data set [12] is AGS. Briefly: Induction of apoptosis in human AGS cells assessed as early apoptotic cells at 1 uM incubated for 48 hrs by Annexin V-FITC/PI staining based flow cytometry method (reference value: 2.38 %). The format is functional.
The test system of data set [13] is AGS. Briefly: Induction of apoptosis in human AGS cells assessed as early apoptotic cells at 3 uM incubated for 48 hrs by Annexin V-FITC/PI staining based flow cytometry method (reference value: 2.38 %). The format is functional.
Data set [14] relates to AGS. Briefly: Induction of apoptosis in human AGS cells assessed as late apoptotic cells at 0.3 uM incubated for 48 hrs by Annexin V-FITC/PI staining based flow cytometry method (reference value: 2.46 %). The class given is functional.
Data set [15] concerns AGS. As to the kind of experiment: Induction of apoptosis in human AGS cells assessed as late apoptotic cells at 1 uM incubated for 48 hrs by Annexin V-FITC/PI staining based flow cytometry method (reference value: 2.46 %). The class given is functional.
Data set [16] deals with AGS. As to the kind of experiment: Induction of apoptosis in human AGS cells assessed as late apoptotic cells at 3 uM incubated for 48 hrs by Annexin V-FITC/PI staining based flow cytometry method (reference value: 2.46 %). The format is functional.
Data set [17] relates to AGS. As to the kind of experiment: Induction of apoptosis in human AGS cells assessed as necrotic cells at 0.3 uM incubated for 48 hrs by Annexin V-FITC/PI staining based flow cytometry method (reference value: 0.32 %). The format is functional.
The test system of data set [18] is AGS. As to the kind of experiment: Induction of apoptosis in human AGS cells assessed as necrotic cells at 1 uM incubated for 48 hrs by Annexin V-FITC/PI staining based flow cytometry method (reference value: 0.32 %). The class given is functional.
Data set [19] has as its system AGS. As to the kind of experiment: Induction of apoptosis in human AGS cells assessed as necrotic cells at 3 uM incubated for 48 hrs by Annexin V-FITC/PI staining based flow cytometry method (reference value: 0.32 %). The format is functional.
Data set [20] relates to MGC-803. Briefly: Antitumor activity against human MGC-803 cells xenografted in BALB/c mouse assessed as inhibition of tumor volume at 15 mg/kg,ip administrated for 21 consecutive days. The class given is functional, organism-based.
Data set [21] deals with MGC-803. Briefly: Antitumor activity against human MGC-803 cells xenografted in BALB/c mouse assessed as inhibition of tumor weight at 15 mg/kg,ip administrated for 21 consecutive days. The class given is functional, organism-based.
For data set [22], the system named is MGC-803. Briefly: Antitumor activity against human MGC-803 cells xenografted in BALB/c mouse assessed as tumor growth inhibition at 15 mg/kg,ip administrated for 21 consecutive days relative to control. The settings on record: read-out: TGI. The format is functional.

Active and inactive are the calls of the source. Bounds are passed on as bounds.

Chain of Signal transducer and activator of transcription 3 (Homo sapiens) (P40763 whole entry): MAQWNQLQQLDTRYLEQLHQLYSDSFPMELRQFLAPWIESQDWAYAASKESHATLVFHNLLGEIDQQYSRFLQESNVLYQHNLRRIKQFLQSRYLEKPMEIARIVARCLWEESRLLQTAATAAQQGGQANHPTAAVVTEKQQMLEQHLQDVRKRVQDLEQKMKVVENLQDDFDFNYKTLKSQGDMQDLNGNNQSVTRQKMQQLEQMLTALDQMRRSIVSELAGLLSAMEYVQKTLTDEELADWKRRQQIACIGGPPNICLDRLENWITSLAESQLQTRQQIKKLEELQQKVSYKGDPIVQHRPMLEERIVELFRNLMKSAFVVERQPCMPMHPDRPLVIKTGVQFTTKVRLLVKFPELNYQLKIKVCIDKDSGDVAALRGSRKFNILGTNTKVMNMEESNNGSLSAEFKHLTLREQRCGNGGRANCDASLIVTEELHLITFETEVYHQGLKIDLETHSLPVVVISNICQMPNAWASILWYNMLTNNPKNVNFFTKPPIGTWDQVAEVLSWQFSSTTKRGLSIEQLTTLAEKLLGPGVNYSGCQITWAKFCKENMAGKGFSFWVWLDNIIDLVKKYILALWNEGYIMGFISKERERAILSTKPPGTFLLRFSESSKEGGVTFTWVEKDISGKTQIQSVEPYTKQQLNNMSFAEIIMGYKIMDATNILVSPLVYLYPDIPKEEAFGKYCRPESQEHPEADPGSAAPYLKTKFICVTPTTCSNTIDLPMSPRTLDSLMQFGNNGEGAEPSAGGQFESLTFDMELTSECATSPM

Turning to `COc1ccn2c(-c3ccc(NC(=O)c4ccc([N+](=O)[O-])o4)nc3)cnc2c1`, the IC50 with AGS [1] and in the data set on MGC-803 [2] was greater than 20000 nM each time.
Consider `O=C(Nc1ccc(-c2cnc3cc(N4CCN(C5CC5)CC4)ccn23)cc1)c1ccc([N+](=O)[O-])o1`, for which the IC50 was found to be 1920 nM with AGS [1] and 1650 nM in the data set on MGC-803 [2].
Consider `CN1CCCN(c2ccn3c(-c4ccc(NC(=O)c5ccc([N+](=O)[O-])o5)cc4)cnc3c2)CC1`, for which the IC50 was 2700 nM in the data set on AGS [1] and 3580 nM with MGC-803 [2].
Regarding `COc1ccn2c(-c3ccc(NC(=O)c4ccc([N+](=O)[O-])o4)cc3)cnc2c1`, the IC50 in the data set with AGS [1] was 720 nM; with MGC-803 [2] it was 860 nM. In addition, in data set [3], the half-life came to 28.3 min. Also, in [4], the inhibition entry was “Active”.
As to `O=C(Nc1ccc(-c2cnc3cc(Cl)ccn23)cc1)c1ccc([N+](=O)[O-])o1`, the results for the IC50 in the data set with AGS [1] and with MGC-803 [2] were 1700 nM and 4620 nM, respectively.
Regarding `CC1(O)CCN(c2ccn3c(-c4ccc(NC(=O)c5ccc([N+](=O)[O-])o5)cc4)cnc3c2)CC1`, the IC50 is 1530 nM in the data set on AGS [1] and 3100 nM with MGC-803 [2].
As for `COc1ccn2c(-c3ccc(NC(=O)c4ccc([N+](=O)[O-])o4)c(C)c3)cnc2c1`, the IC50 with AGS [1] was 430 nM; in the data set on MGC-803 [2], 1380 nM. In addition, in data set [3], the half-life worked out at 39.9 min. For the same compound, in data set [4], the inhibition result was “Active”.
With `O=C(Nc1ccc(-c2cnc3cc(C4=CCNCC4)ccn23)cc1)c1ccc([N+](=O)[O-])o1`, the values for the IC50 with AGS [1] and in the data set with MGC-803 [2] were 1280 nM and 790 nM, respectively. For the same compound, the half-life in [3] came to 12.2 min. The inhibition result in [4] is “Active”.
Regarding `CN1CCN(c2ccn3c(-c4ccc(NC(=O)c5ccc([N+](=O)[O-])o5)cc4)cnc3c2)CC1`, the figures for the IC50 with AGS [1] and with MGC-803 [2] were 2340 nM and 1580 nM, respectively.
Consider `O=C(Nc1ccc(-c2cnc3cc(N4CCS(=O)(=O)CC4)ccn23)cc1)c1ccc([N+](=O)[O-])o1`, for which the IC50 was 2130 nM in the data set with AGS [1] and 3040 nM in the data set on MGC-803 [2].
For `O=C(Cc1c(-c2ccccc2)nc2ccccn12)Nc1ccc2c(c1)S(=O)(=O)C=C2`, the IC50 with AGS [1] was 1550 nM. For the same compound, in [3], the half-life was 24.2 min. For the same compound, the inhibition result (in data set [4]; in the data set with MGC-803 [20]; in the data set with MGC-803 [21]) was “Active” throughout. For the same compound, the outcome in [5] was Active. Further, the inhibition entry in the data set on AGS [6] and in the data set with MGC-803 [7] was “Dose-Dependent Effect” each time. The viability at 0.3 µM with AGS [8] turned out to be 94.1%. Besides, the viability at 1 µM with AGS [9] amounted to 91.8%. Besides, the viability at 3 µM in the data set on AGS [10] was found to be 90.2%. For the same compound, the Activity with AGS [11] is 2.59%; in the data set on AGS [12], 3.19%; in the data set with AGS [13] it was 7.98%; with AGS [14], 3.01%; with AGS [15], 4.84%; with AGS [16] it was 1.3%. The figures for the Activity with AGS [17], in the data set with AGS [18] and in the data set on AGS [19] were 0.29%, 0.19% and 0.5%, respectively. Moreover, the inhibition in vivo at 15 mg/kg with MGC-803 [22] is 54.5%.
`COc1ccn2c(-c3ccc(NC(=O)c4ccc([N+](=O)[O-])o4)c(C(F)(F)F)c3)cnc2c1`: the IC50 in the data set on AGS [1] was determined as 710 nM; in the data set with MGC-803 [2], 2910 nM. Moreover, the half-life in data set [3] was 24.2 min. Besides, the inhibition entry in data set [4] is “Active”.
For `Cc1cc(-c2cnc3ccccn23)ccc1NC(=O)c1ccc([N+](=O)[O-])o1` the same measures were 730 nM, 1830 nM, 36.7 min and “Active”.
In the case of `O=C(Nc1ccc(-c2cnc3cc(C4=CCN(C5COC5)CC4)ccn23)cc1)c1ccc([N+](=O)[O-])o1`, the values for the IC50 in the data set on AGS [1] and in the data set with MGC-803 [2] were 790 nM and 1100 nM, respectively.
As for `CC(=O)N1CC=C(c2ccn3c(-c4ccc(NC(=O)c5ccc([N+](=O)[O-])o5)cc4)cnc3c2)CC1`, the IC50 with AGS [1] was determined as 410 nM; in the data set on MGC-803 [2], 940 nM. In addition, the half-life in [3] was 13.5 min. Moreover, the inhibition result in data set [4] is “Active”.
Consider `O=C(Nc1ccc(-c2cnc3ccccn23)cc1)c1ccc([N+](=O)[O-])o1`, for which the figures for the IC50 in the data set with AGS [1] and with MGC-803 [2] were 360 nM and 590 nM, respectively. Moreover, in [3], the half-life came to 24.7 min. The inhibition result in data set [4] is “Active”.
As to `COc1ccn2c(-c3ccc(NC(=O)c4ccc([N+](=O)[O-])o4)c(OC)c3)cnc2c1`, the IC50 stood at 3880 nM in the data set on AGS [1] and 7520 nM with MGC-803 [2].
For `O=C(Nc1ccc(-c2cnc3cc(N4CCCC4)ccn23)cc1)c1ccc([N+](=O)[O-])o1`, the results for the IC50 in the data set on AGS [1] and with MGC-803 [2] were 1240 nM and 1150 nM, respectively.
For the compound `O=C(Nc1ccc(-c2cnc3cc(N4CCC4)ccn23)cc1)c1ccc([N+](=O)[O-])o1`, the IC50 in the data set on AGS [1] and in the data set on MGC-803 [2] was greater than 5000 nM throughout.
Consider `COc1ccn2c(-c3ccc(NC(=O)c4ccc([N+](=O)[O-])o4)c(C)c3C(F)(F)F)cnc2c1`, for which the figures for the IC50 in the data set with AGS [1] and in the data set with MGC-803 [2] were 2100 nM and 2720 nM, respectively. The half-life in [3] stood at 50.1 min. In addition, the inhibition entry in data set [4] is “Active”.
`O=C(Nc1ccc(-c2cnc3cc(N4CCOCC4)ccn23)cc1)c1ccc([N+](=O)[O-])o1`: the IC50 with AGS [1] is 2220 nM; with MGC-803 [2] it was 7410 nM.
As for `COc1ccn2c(-c3ccc(NC(=O)c4ccc([N+](=O)[O-])o4)cc3OC)cnc2c1`, the IC50 in the data set on AGS [1] and with MGC-803 [2] was greater than 20000 nM each time.
In the case of `COc1ccn2c(-c3ccc(NC(=O)c4ccc([N+](=O)[O-])o4)cc3F)cnc2c1`, the results for the IC50 in the data set on AGS [1] and in the data set with MGC-803 [2] were 700 nM and 1080 nM, respectively. Also, the half-life in data set [3] is 25.7 min. In addition, in [4], the inhibition entry was “Active”.
As for `O=C(Nc1ccc(-c2cnc3cc(Br)ccn23)cc1)c1ccc([N+](=O)[O-])o1`, the IC50 with AGS [1] turned out to be 560 nM; in the data set on MGC-803 [2], 750 nM.
Take `COc1ccn2c(-c3ccc(NC(=O)c4ccc([N+](=O)[O-])o4)cc3C)cnc2c1`: the values for the IC50 in the data set on AGS [1] and in the data set on MGC-803 [2] were 640 nM and 1030 nM, respectively. In addition, the half-life in data set [3] is 43 min. For the same compound, in data set [4], the inhibition entry was “Active”.

In general, IC50 refers to the concentration that gives 50% inhibition. As usually defined, the half-life is the time needed for the level to fall by half in the phase considered.
